Measurements taken from patent US20190365675A1, “COMPOSITIONS FOR THE PREVENTION AND/OR TREATMENT OF ALCOHOL USE DISORDERS” (SERVICIO ANDALUZ DE SALUD, priority 2016, published 2019).

How the values were obtained:
Type in all cases: in vivo, Wistar rats
IL-1β = IL-1β mRNA and protein (ELISA) in frontal cortex and plasma after ethanol intoxication; conditions: OEA pre-treatment
Experimental: The animals were treated with intragastric (i.g.) ethanol 3 times a day using an i.g. cannula (16G needle, Fisher Scientific, Waltham, Mass., USA), following a protocol based on a slightly modified standard 4-day alcohol intoxication pattern (Bernier et al., 2002a, b) (FIG. 1A). The ethanol doses were administered every 8 h for a total time of 4 days. The rats treated with ethanol received an initial loading dose of 5 g/kg of ethanol in a 30% solution (w/v) and then a maximum maintenance dose of 3 g/kg, which were determined based on blood ethanol levels (BEL). This repeated standard alcohol intoxication paradigm kept BEL intoxication relatively constant in a range of sedation/ataxia (190 to 430 mg/dl, Table 3), according to the 6-point alcohol intoxication behavior scale (Majchrowicz, 1975). The mean dose of ethanol/rat/day (days 1-4) was 7.06 g/kg, similar to other studies (Obernier et al., 2002a, b). OEA (5 mg/kg, i.p., except initial dose of 10 mg/kg i.p.; synthesized as described in Giuffrida et al., 2000) was dissolved in the vehicle (5% Tween-80 in saline solution) and injected 10 minutes before each of the administrations of ethanol by an intragastric gavage. The anti-inflammatory activity of OEA at 10 mg/kg per intraperitoneal route in the frontal cortex before the injection of LPS (Sayd et al., 2014) was previously referred to. In this study, OEA is repeatedly injected as a pre-treatment before each administration of ethanol. […] The quantitative changes in mRNA levels were estimated by means of RT-PCR, carried out in the presence of the SYBR green primer using a 20-L reaction in a Rotor-Gene (Corbett Research®, Mortlake, NSW, Australia). […] The levels of soluble HMGB1, TNF-α, IL-1β and MCP-1 were determined by means of a commercially available enzyme-linked immunosorbent assay kit (ELISA) (Elabscience Biotechnology Co., Ltd., China, for HMGB-1; RayBiotech®, GA, USA, for TNF-α, IL-1β, and MCP-1). The nuclear/cytosol HMGB1 fraction was determined by means of Western blot analysis.

rats = experiment: Forced swim test during acute ethanol withdrawal; conditions: 48 h after last ethanol; OEA pre-treatment during intoxication
Experimental: In this third experiment (n=25), the treatment with ethanol intoxication and pre-treatment with OEA applied in experiment 2 was repeated, and the animals were subjected to elevated plus maze test 24 h and 12 days after the last forced administration of ethanol and to the forced swim test 48 h after the ethanol intoxication protocol. The rats were subjected to the forced swim test two days after the last ethanol force-feeding (see FIG. 1C for the experimental design), and specific behaviors were recorded with a digital video camera for 5 minutes. These same rats were also subjected to the elevated plus maze test equipped with infrared light photography (Panlab, Barcelona, Spain) 1 and 12 days after the last ethanol force-feeding, where the animals were allowed to freely explore the maze for 5 minutes. The tests were performed 3 h after the start of the dark phase.

[1] = Blood ethanol levels (BEL) during 4-day alcohol intoxication protocol; conditions: before and after force-feeding; two-way repeated measure ANOVA n.s.
Experimental: The animals were treated with intragastric (i.g.) ethanol 3 times a day using an i.g. cannula (16G needle, Fisher Scientific, Waltham, Mass., USA), following a protocol based on a slightly modified standard 4-day alcohol intoxication pattern (Bernier et al., 2002a, b) (FIG. 1A). The ethanol doses were administered every 8 h for a total time of 4 days. The rats treated with ethanol received an initial loading dose of 5 g/kg of ethanol in a 30% solution (w/v) and then a maximum maintenance dose of 3 g/kg, which were determined based on blood ethanol levels (BEL). This repeated standard alcohol intoxication paradigm kept BEL intoxication relatively constant in a range of sedation/ataxia (190 to 430 mg/dl, Table 3), according to the 6-point alcohol intoxication behavior scale (Majchrowicz, 1975). The mean dose of ethanol/rat/day (days 1-4) was 7.06 g/kg, similar to other studies (Obernier et al., 2002a, b). To confirm intoxication, BEL was determined in blood samples taken from the tail 120 minutes before and after the second i.g. administration of ethanol of the day, which was done at 3 pm by means of the use of electrochemical detection of an enzymatic reaction with an AM1 alcohol analyzer (Analox Instruments, London, United Kingdom). […]

CCCCCCCC/C=C\CCCCCCCC(=O)NCCO [OEA, oleoylethanolamide]
Ethanol-induced increase in IL-1β protein levels (IL-1β; frontal cortex, ELISA): prevented | Ethanol-induced increase in IL-1β mRNA (IL-1β; frontal cortex): did not prevent | Ethanol-induced increase in IL-1β plasma levels (IL-1β; plasma, ELISA): prevented | Forced swim test: immobility (rats): normalizing | Forced swim test: latency (rats): normalizing | Forced swim test: swimming (rats): normalizing | Effect of OEA pre-treatment on BEL reached during days 2-4 [1]: did not change
